Reference: patent US20160038411A1, “PULSATILE GASTRIC RETENTIVE DOSAGE FORMS” (Depomed, Inc., priority 2007, published 2016)
Where two headings read alike, the source gives them in different places.

How the values were obtained:
[1] = Four-way crossover pharmacokinetic study of omeprazole (limited colonic absorption); type: in vivo; settings: human, plasma, 20 mg; for AUC: mean±SD
Source text: Nine healthy subjects were entered into the study with an intention to complete treatment of at least six subjects. […] A period of at least four days for washout was allowed between dosing.

[2] = Two-period crossover study in GERD patients: plasma omeprazole PK; type: in vivo, human; settings: for AUC: human, plasma, oral, read-out: median AUC (25-75%)
Method: (§1) Sixteen patients with a history of GERD, all of whom experienced recurrent nighttime reflux for at least three months while taking proton pump inhibitors, were enrolled. […] Ambulatory 24-hour gastric pH was recorded and blood samples taken for PK analysis on days 6-7. Following a seven day washout the patients were crossed over to the alternate treatment. NAB was defined as an intra-gastric pH<4 for more than 1 hour between 22:00 hour and 06:00 hour (10:00 PM and 6:00 AM).

[3] = tested on: NAB (intra-gastric pH<4 for more than 1 hour between 22:00 and 06:00); assay: Two-period crossover study in GERD patients: ambulatory 24-hour gastric pH, NAB; type: in vivo, human
Method: as §1, with “enrolled. The study was an open label crossover study in which 14 of the 16 patients participated in each of two treatment arms separated by a washout period.” for “enrolled.”

pH of the stomach = settings: cited from earlier work
basal acid output = settings: 20 mg dose, healthy volunteers and patients, cited from earlier work
[4] = pH 11 phosphate buffer; cited from earlier work
nocturnal heartburn = settings: cited from earlier work

In the case of `COc1ccc2[nH]c([S+]([O-])Cc3ncc(C)c(OC)c3C)nc2c1` (stereo not drawn) [omeprazole, 5-methoxy-2-[[(4-methoxy-3,5-dimethyl-2-pyridinyl)methyl]sulfinyl]-1H-benzimidazole], the AUC ([1]; iv, (iv) 20 mg omeprazole delivered to the ascending colon via ENTERION capsule) is reported as 242 ± 323 ng·h/mL, the Tmax ([1]; iv, (iv) Colonic) is reported as 1.8 h and the bioavailability ([1]; iv, (iv) Colonic, compared to fasted state, read-out: Relative bioavailability) is reported as 22 ± 12%. It also gave a bioavailability ([1]; oral, 20 mg fed, one of the subjects removed from the analysis, read-out: relative bioavailability in the fed state compared to fasting) of 96 ± 7%, a Tmax ([1]; oral, (i) SCR) of 4.9 h and a bioavailability ([1]; oral, (i) SCR, fed state, compared to fasted state, read-out: Relative bioavailability) of 61 ± 15%. It also gave an AUC ([1]; oral, (i) SCR: 20 mg omeprazole divided into 17 doses at 30 minute intervals (8 hr), fed state, n = 7) of 568 ± 727 ng·h/mL, an AUC ([1]; oral, (ii) 20 mg omeprazole in the fed state, n = 7) of 849 ± 999 ng·h/mL and a Tmax ([1]; oral, (ii) Fed) of 3.7 h. For the same compound, the bioavailability ([1]; oral, (ii) Fed, compared to fasted state, read-out: Relative bioavailability) was 90 ± 16%, the AUC ([1]; oral, (iii) 20 mg omeprazole in the fasted state, n = 7) was 969 ± 1090 ng·h/mL and the bioavailability ([1]; oral, (iii) Fasted (reference arm), read-out: Relative bioavailability) was 100%. For the same compound, the bioavailability ([1]; other: ENTERION capsule activated in the terminal ileum, one subject, ENTERION capsule activated in the terminal ileum, read-out: relative bioavailability compared to fasted state) was 58%, the “patients who did not start absorbing omeprazole until 4-5 hours after the initial dose” value ([2]; 20 mg at dinner + 20 mg 4 hours later, of the 14 patients (FIG. 7B)) was 36% and the “blood levels of omeprazole between 2:00 and 3:00 AM” value ([2]; 40 mg single dose arm, the three patients who experienced NAB) was “undetectable levels”. The “time until start of omeprazole absorption after the initial 20 mg dose” value ([2]; five of the 14 patients of the two dose arm (FIG. 7B)) was 4 to 5 h, the AUC ([2]; 20 mg at dinner + 20 mg four hours later for six days, all patients, n = 14) was 1860 ng·h/mL and the AUC ([2]; 20 mg at dinner + 20 mg four hours later, patients with NAB (n = 5)) was 1670 ng·h/mL. For the same compound, the AUC ([2]; 20 mg at dinner + 20 mg four hours later, patients without NAB (n = 9)) was 1910 ng·h/mL, the “patients who experienced inhibition of NAB” value ([3]; 20 mg at dinner + 20 mg 4 hours later, the 9 patients with two-dose absorption profile (FIG. 7A)) was 100% and the “occurrence of NAB” value ([3]; 40 mg single dose 30 minutes before dinner for six days, 14 patients) was “Three of the patients experienced NAB”. The “occurrence of NAB” value ([3]; two dose arm, nine patients who achieved blood levels from both doses) was “none experienced NAB”, the “occurrence of NAB” value ([3]; two dose arm, the five patients with delayed absorption) was “All five of those patients experienced NAB” and the “nighttime pH control of the stomach, time with pH>4” value (“nighttime pH control of the stomach” below) (pH of the stomach; 40 mg before breakfast) was 24 % of the time. For the same compound, the “nighttime pH control of the stomach” value (pH of the stomach; 40 mg before dinner) was 69 % of the time, the “nighttime pH control of the stomach” value (pH of the stomach; twice-daily (BID) dosing, 20 mg before breakfast and dinner) was 80 % of the time and the “decrease in basal acid output” value (basal acid output; 2-6 hours after dosing) was 78%. The “decrease in basal acid output” value (basal acid output; 24 hours after dosing) was 50%-80% and the “stability at pH 11” value [4] was “stable at pH 11”.
In the case of `COc1ccc2nc([S@@+]([O-])Cc3ncc(C)c(OC)c3C)[nH]c2c1` [esomeprazole], the “GERD patients with relief of nocturnal heartburn” value (nocturnal heartburn) is given as 50%.
